Patent US11986528B2, “Use of a mixture of lauroyl macrogolglyceride and polyethylene glycol as an excipient” (GATTEFOSSE SAS, priority 2020, dated 2024)
In brackets after ≈: the same amount, converted by molar mass.

Key:
[1] = water at 25° C.; cited from earlier work
[2] = dissolution (liberation) of terfenadine from capsules, FIG. 4; type: physicochemical; conditions: after 120 minutes; dose 60 mg
Description: Another active principle, terfenadine, was formulated with Gelucire® 44/14. The mixture was cast into a capsule in a manner that was similar to that of Example 1 above which used piroxicam.
The dose was 60 mg, for a total of 680 mg of formulation.
The graph of FIG. 4 was therefore obtained, illustrating the liberation L (%) of the active principle as a function of time t in minutes, in which: • the curve C1 (invention) corresponds to a mixture of terfenadine/Gelucire® 44/14/PEG 6000, in which the ratio by weight of Gelucire® 44/14/PEG 6000 is 65/35: • the curve C2 (invention) corresponds to a mixture of terfenadine/Gelucire® 44/14/PEG 6000, in which the ratio by weight of Gelucire® 44/14/PEG 6000 is 60/40; • the curve C3 (control 1) corresponds to a mixture of terfenadine/PEG 6000; • the curve C4 (control 2) corresponds to terfenadine alone.

For `CC(C)(C)c1ccc(C(O)CCCN2CCC(C(O)(c3ccccc3)c3ccccc3)CC2)cc1` (centres unmarked) [terfenadine], the solubility in water [1] is listed as 250 µg/mL (≈ 530 µM) and the “liberation L of terfenadine” value [2] is listed as “below 10%”.
